In PubChem BioAssay (NCI):
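In this assay, cells in 96-well plates receive the compound at five concentrations for 48 hours. Endpoints are linearly interpolated between the surrounding concentrations. Here, GI50 denotes the concentration required for 50% inhibition of growth. At the TGI there is no net growth.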

Tests used:
Assay in all cases: NCI tumour cell line growth inhibition, 48 h
786-0 renal = test system: 786-0 renal
A549 NSCLC = test system: A549 NSCLC
ACHN renal = test system: ACHN renal
BT-549 breast = test system: BT-549 breast
CAKI-1 renal = test system: CAKI-1 renal
CCRF-CEM leukemia = test system: CCRF-CEM leukemia
COLO 205 colon = test system: COLO 205 colon
DU-145 prostate = test system: DU-145 prostate
EKVX NSCLC = test system: EKVX NSCLC
HCC-2998 colon = test system: HCC-2998 colon
HCT-116 colon = test system: HCT-116 colon
HL-60(TB) leukemia = test system: HL-60(TB) leukemia
HOP-62 NSCLC = test system: HOP-62 NSCLC
IGROV1 ovarian = test system: IGROV1 ovarian
LOX IMVI melanoma = test system: LOX IMVI melanoma
MCF7 breast = test system: MCF7 breast
MDA-MB-231 breast = test system: MDA-MB-231 breast
MDA-N = test system: MDA-N
NCI-H226 lung = test system: NCI-H226 lung
NCI-H460 lung = test system: NCI-H460 lung
OVCAR-3 ovarian = test system: OVCAR-3 ovarian
OVCAR-5 ovarian = test system: OVCAR-5 ovarian
PC-3 prostate = test system: PC-3 prostate
RPMI-8226 leukemia = test system: RPMI-8226 leukemia
RXF 393 renal = test system: RXF 393 renal
SF-268 CNS = test system: SF-268 CNS
SK-MEL-2 melanoma = test system: SK-MEL-2 melanoma
SK-MEL-28 melanoma = test system: SK-MEL-28 melanoma
SK-OV-3 ovarian = test system: SK-OV-3 ovarian
T-47D breast = test system: T-47D breast
TK-10 renal = test system: TK-10 renal
UACC-257 melanoma = test system: UACC-257 melanoma
UO-31 renal = test system: UO-31 renal
A498 renal = test system: A498 renal
HCT-15 colon = test system: HCT-15 colon
HOP-92 NSCLC = test system: HOP-92 NSCLC
HS 578T breast = test system: HS 578T breast
HT29 colon = test system: HT29 colon
K-562 leukemia = test system: K-562 leukemia
KM12 colon = test system: KM12 colon
M14 melanoma = test system: M14 melanoma
MALME-3M melanoma = test system: MALME-3M melanoma
MDA-MB-435 = test system: MDA-MB-435
MOLT-4 leukemia = test system: MOLT-4 leukemia
NCI-H23 lung = test system: NCI-H23 lung
NCI-H522 lung = test system: NCI-H522 lung
NCI/ADR-RES ovarian = test system: NCI/ADR-RES ovarian
OVCAR-4 ovarian = test system: OVCAR-4 ovarian
OVCAR-8 ovarian = test system: OVCAR-8 ovarian
SF-295 CNS = test system: SF-295 CNS
SF-539 CNS = test system: SF-539 CNS
SK-MEL-5 melanoma = test system: SK-MEL-5 melanoma
SN12C renal = test system: SN12C renal
SNB-19 CNS = test system: SNB-19 CNS
SNB-75 CNS = test system: SNB-75 CNS
SR leukemia = test system: SR leukemia
SW-620 colon = test system: SW-620 colon
U251 CNS = test system: U251 CNS
UACC-62 melanoma = test system: UACC-62 melanoma

## COc1cc2cc(C(=O)N3CC(COS(C)(=O)=O)c4c3cc(N)c3ccccc43)[nH]c2c(OC)c1OC (centres undefined)
786-0 renal
  TGI: > 100 µM
A549 NSCLC
  TGI: > 100 µM
ACHN renal
  TGI: < 0.01 µM
BT-549 breast
  TGI: 0.25 µM
CAKI-1 renal
  TGI: 0.0928 µM
CCRF-CEM leukemia
  TGI: > 100 µM
COLO 205 colon
  TGI: > 100 µM
DU-145 prostate
  TGI: < 0.01 µM
EKVX NSCLC
  TGI: < 0.01 µM
HCC-2998 colon
  TGI: < 0.01 µM
HCT-116 colon
  TGI: > 100 µM
HL-60(TB) leukemia
  TGI: > 100 µM
HOP-62 NSCLC
  TGI: > 100 µM
IGROV1 ovarian
  TGI: > 100 µM
LOX IMVI melanoma
  TGI: > 100 µM
MCF7 breast
  TGI: > 100 µM
MDA-MB-231 breast
  TGI: < 0.01 µM
MDA-N
  TGI: > 100 µM
NCI-H226 lung
  TGI: 0.228 µM
NCI-H460 lung
  TGI: > 100 µM
OVCAR-3 ovarian
  TGI: > 100 µM
OVCAR-5 ovarian
  TGI: > 100 µM
PC-3 prostate
  TGI: 30.5 µM
RPMI-8226 leukemia
  TGI: > 100 µM
RXF 393 renal
  TGI: 0.0377 µM
SF-268 CNS
  TGI: > 100 µM
SK-MEL-2 melanoma
  TGI: > 100 µM
SK-MEL-28 melanoma
  TGI: > 100 µM
SK-OV-3 ovarian
  TGI: 1.28 µM
T-47D breast
  TGI: > 100 µM
TK-10 renal
  TGI: < 0.01 µM
UACC-257 melanoma
  TGI: > 100 µM
UO-31 renal
  TGI: > 100 µM

## C=CC(=O)N[C@H]1CCOC[C@H]1Nc1ncc2cc(-c3c(Cl)c(OC)cc(OC)c3Cl)ccc2n1
786-0 renal
  GI50: 17.5 µM
  TGI: > 100 µM
A498 renal
  GI50: 3.36 µM
  TGI: 33.7 µM
A549 NSCLC
  GI50: 30.5 µM
  TGI: > 100 µM
ACHN renal
  GI50: 15.8 µM
  TGI: > 100 µM
BT-549 breast
  GI50: 2.86 µM
  TGI: 15.8 µM
CAKI-1 renal
  GI50: 12.5 µM
  TGI: > 100 µM
CCRF-CEM leukemia
  GI50: 21.9 µM
  TGI: > 100 µM
COLO 205 colon
  GI50: 13.8 µM
  TGI: 29.5 µM
DU-145 prostate
  GI50: 24.4 µM
  TGI: > 100 µM
EKVX NSCLC
  GI50: 4.31 µM
  TGI: 94.3 µM
HCC-2998 colon
  GI50: 32.7 µM
  TGI: > 100 µM
HCT-116 colon
  GI50: 12.7 µM
  TGI: 57.2 µM
HCT-15 colon
  GI50: 7.89 µM
  TGI: 84.4 µM
HL-60(TB) leukemia
  GI50: 12 µM
  TGI: 64.5 µM
HOP-62 NSCLC
  GI50: 43 µM
  TGI: > 100 µM
HOP-92 NSCLC
  GI50: 5.38 µM
  TGI: 51.3 µM
HS 578T breast
  GI50: 17.8 µM
  TGI: > 100 µM
HT29 colon
  GI50: 13.2 µM
  TGI: > 100 µM
IGROV1 ovarian
  GI50: 23.7 µM
  TGI: > 100 µM
K-562 leukemia
  GI50: 13.9 µM
  TGI: > 100 µM
KM12 colon
  GI50: 27.1 µM
  TGI: > 100 µM
LOX IMVI melanoma
  GI50: 14.9 µM
  TGI: 48.9 µM
M14 melanoma
  GI50: 11.8 µM
  TGI: 40.2 µM
MALME-3M melanoma
  GI50: 13.1 µM
  TGI: 64 µM
MCF7 breast
  GI50: 5.65 µM
  TGI: 51 µM
MDA-MB-231 breast
  GI50: 17.7 µM
  TGI: > 100 µM
MDA-MB-435
  GI50: 15.3 µM
  TGI: 65.8 µM
MOLT-4 leukemia
  GI50: 6.43 µM
  TGI: > 100 µM
NCI-H226 lung
  GI50: 10.7 µM
  TGI: 87.2 µM
NCI-H23 lung
  GI50: 22 µM
  TGI: > 100 µM
NCI-H460 lung
  GI50: 13.8 µM
  TGI: > 100 µM
NCI-H522 lung
  GI50: 30.9 µM
  TGI: > 100 µM
NCI/ADR-RES ovarian
  GI50: 20.7 µM
  TGI: > 100 µM
OVCAR-3 ovarian
  GI50: 20.3 µM
  TGI: > 100 µM
OVCAR-4 ovarian
  GI50: 6.05 µM
  TGI: > 100 µM
OVCAR-5 ovarian
  GI50: 45.1 µM
  TGI: > 100 µM
OVCAR-8 ovarian
  GI50: 39.3 µM
  TGI: > 100 µM
PC-3 prostate
  GI50: 14.8 µM
  TGI: > 100 µM
RPMI-8226 leukemia
  GI50: 9.04 µM
  TGI: 61.5 µM
RXF 393 renal
  GI50: 5.35 µM
  TGI: 36.7 µM
SF-268 CNS
  GI50: 16.2 µM
  TGI: > 100 µM
SF-295 CNS
  GI50: 16 µM
  TGI: > 100 µM
SF-539 CNS
  GI50: 12.5 µM
  TGI: 29.9 µM
SK-MEL-2 melanoma
  GI50: 11.9 µM
  TGI: 31.7 µM
SK-MEL-28 melanoma
  GI50: 18.3 µM
  TGI: 80.2 µM
SK-MEL-5 melanoma
  GI50: 7.06 µM
  TGI: 20.9 µM
SK-OV-3 ovarian
  GI50: 26.9 µM
  TGI: > 100 µM
SN12C renal
  GI50: 16.2 µM
  TGI: > 100 µM
SNB-19 CNS
  GI50: 26.5 µM
  TGI: > 100 µM
SNB-75 CNS
  GI50: 12 µM
  TGI: > 100 µM
SR leukemia
  GI50: 10.6 µM
  TGI: > 100 µM
SW-620 colon
  GI50: 27.5 µM
  TGI: > 100 µM
T-47D breast
  GI50: 7.51 µM
  TGI: 85.5 µM
TK-10 renal
  GI50: 31.8 µM
  TGI: > 100 µM
U251 CNS
  GI50: 26.5 µM
  TGI: > 100 µM
UACC-257 melanoma
  GI50: 32.3 µM
  TGI: > 100 µM
UACC-62 melanoma
  GI50: 10.7 µM
  TGI: 30.6 µM
UO-31 renal
  GI50: 4.28 µM
  TGI: > 100 µM
